# Results reported in patent US20220144815A1, “1,3,4-OXADIAZOLES AND THEIR DERIVATIVES AS NEW ANTIFUNGAL AGENTS” (Bayer Aktiengesellschaft, priority 2018, published 2022).
# Assay: Log P by HPLC on reversed phase columns, method [a] (EEC directive 79/831 Annex V.A8)
# Format: physicochemical
# Details: reversed phase HPLC column; Method A: LC-UV, acidic range, 0.1% formic acid in water and acetonitrile; read-out: Log P
# Description: Measurement of Log P values as provided herein was performed according to EEC directive 79/831 Annex V.A8 by HPLC (High Performance Liquid Chromatography) on reversed phase columns with the following methods: • ^[a] Log P value is determined by measurement of LC-UV, in an acidic range, with 0.1% formic acid in water and acetonitrile as eluent (linear gradient from 10% acetonitrile to 95% acetonitrile). • ^[b] Log P value is determined by measurement of LC-UV, in a neutral range, with 0.001 molar ammonium acetate solution in water and acetonitrile as eluent (linear gradient from 10% acetonitrile to 95% acetonitrile). • ^[c] Log P value is determined by measurement of LC-UV, in an acidic range, with 0.1% phosphoric acid and acetonitrile as eluent (linear gradient from 10% acetonitrile to 95% acetonitrile). If more than one Log P value is available within the same method, all the values are given and separated by “+”. Calibration was done with straight-chain alkan2-ones (with 3 to 16 carbon atoms) with known Log P values (measurement of Log P values using retention times with linear interpolation between successive alkanones). Lambda-max-values were determined using UV-spectra from 200 nm to 400 nm and the peak values of the chromatographic signals In table 1, the log P values were determined according to method [^a]. In table 2, the log P values were determined according to method [^a].
row,chromatographic logP,Compound
1,3.23,"COC(=O)c1ccc(-c2nnc(C(F)(F)F)s2)cc1 [I.011, methyl 4-[5-(trifluoromethyl)-1,3,4-thiadiazol-2-yl]benzoate]"

# Same assay, conditions: reversed phase HPLC column; log P determined according to method [a] (HPLC on reversed phase columns); read-out: logP
row,chromatographic logP,Compound
1,4.21,"FC(F)c1nnc(-c2cnc(-c3cccc(Cl)c3)nc2)o1 [I.100, 2-(3-chlorophenyl)-5-[5-(difluoromethyl)-1,3,4-oxadiazol-2-yl]pyrimidine]"
2,3.6,"FC(F)c1nnc(-c2cnc(-c3ccc(Cl)cc3)nc2)o1 [I.101, 2-(4-chlorophenyl)-5-[5-(difluoromethyl)-1,3,4-oxadiazol-2-yl]pyrimidine]"
3,2.59,"FC(F)c1nnc(-c2cnc(-c3ccnc(Cl)c3)nc2)o1 [I.102, 2-(2-chloropyridin-4-yl)-5-[5-(difluoromethyl)-1,3,4-oxadiazol-2-yl]pyrimidine]"
4,2.59,"FC(F)c1nnc(-c2cnc(-c3cncc(Cl)c3)nc2)o1 [I.103, 2-(5-chloropyridin-3-yl)-5-[5-(difluoromethyl)-1,3,4-oxadiazol-2-yl]pyrimidine]"
5,1.64,"COC(=O)C1(Nc2ncc(-c3nnc(C(F)F)o3)cn2)CC1 [I.104, methyl 1-({5-[5-(difluoromethyl)-1,3,4-oxadiazol-2-yl]pyrimidin-2-yl}amino)cyclopropanecarboxylate]"
6,3.1,"FC(F)c1nnc(-c2cnc(N3Cc4ccccc4C3)nc2)o1 [I.106, 2-{5-[5-(difluoromethyl)-1,3,4-oxadiazol-2-yl]pyrimidin-2-yl}isoindoline]"
7,2.51,"COc1ccccc1Cc1ncc(-c2nnc(C(F)F)o2)cn1 [I.107, 5-[5-(difluoromethyl)-1,3,4-oxadiazol-2-yl]-2-(2-methoxybenzyl)pyrimidine]"
8,2.8,"COc1ccccc1Nc1ncc(-c2nnc(C(F)F)o2)cn1 [I.109, 5-[5-(difluoromethyl)-1,3,4-oxadiazol-2-yl]-N-(2-methoxyphenyl)pyrimidin-2-amine]"
9,2.62,"Fc1ccccc1CNc1ncc(-c2nnc(C(F)F)o2)cn1 [I.111, 5-[5-(difluoromethyl)-1,3,4-oxadiazol-2-yl]-N-(2-fluorobenzyl)pyrimidin-2-amine]"
10,2.92,"FC(F)c1nnc(-c2cnc(Nc3ccccc3Cl)nc2)o1 [I.114, N-(2-chlorophenyl)-5-[5-(difluoromethyl)-1,3,4-oxadiazol-2-yl]pyrimidin-2-amine]"
11,1.94,"CCOC(=O)C1(Nc2ncc(-c3nnc(C(F)F)o3)cn2)CC1 [I.117, ethyl 1-({5-[5-(difluoromethyl)-1,3,4-oxadiazol-2-yl]pyrimidin-2-yl}amino)cyclopropanecarboxylate]"
12,3.1,"FC(F)c1nnc(-c2cnc(Nc3ccccc3C3CC3)nc2)o1 [I.119, N-(2-cyclopropylphenyl)-5-[5-(difluoromethyl)-1,3,4-oxadiazol-2-yl]pyrimidin-2-amine]"
13,2.86,"C[C@@H](Nc1ncc(-c2nnc(C(F)F)o2)cn1)c1ccc(F)cc1 [I.125a, 5-[5-(difluoromethyl)-1,3,4-oxadiazol-2-yl]-N-[(1R)-1-(4-fluorophenyl)ethyl]pyrimidin-2-amine]"
14,2.85,"C[C@H](Nc1ncc(-c2nnc(C(F)F)o2)cn1)c1ccc(F)cc1 [I.125b, 5-[5-(difluoromethyl)-1,3,4-oxadiazol-2-yl]-N-[(1S)-1-(4-fluorophenyl)ethyl]pyrimidin-2-amine]"
15,3.57,"FC(F)c1nnc(-c2cnc(NC3(C4CCCCC4)CC3)nc2)o1 [I.126, N-(1-cyclohexylcyclopropyl)-5-[5-(difluoromethyl)-1,3,4-oxadiazol-2-yl]pyrimidin-2-amine]"
16,2.95,"FC(F)c1nnc(-c2cnc(NCc3ccccc3Cl)nc2)o1 [I.128, N-(2-chlorobenzyl)-5-[5-(difluoromethyl)-1,3,4-oxadiazol-2-yl]pyrimidin-2-amine]"
17,2.67,"Fc1cccc(F)c1CNc1ncc(-c2nnc(C(F)F)o2)cn1 [I.129, N-(2,6-difluorobenzyl)-5-[5-(difluoromethyl)-1,3,4-oxadiazol-2-yl]pyrimidin-2-amine]"
18,3.3,"Fc1ccccc1Nc1ncc(-c2nnc(C(F)(F)F)s2)cn1 [I.130, N-(2-fluorophenyl)-5-[5-(trifluoromethyl)-1,3,4-thiadiazol-2-yl]pyrimidin-2-amine]"
19,3.5,"CCC(C)(Nc1ncc(-c2nnc(C(F)F)o2)cn1)c1ccccc1 (centres unmarked) [I.138, 5-[5-(difluoromethyl)-1,3,4-oxadiazol-2-yl]-N-(2-phenylbutan-2-yl)pyrimidin-2-amine]"
20,2.51,"FC(F)c1nnc(-c2cnc(OC3(c4ccccc4)COC3)nc2)o1 [I.142, 5-[5-(difluoromethyl)-1,3,4-oxadiazol-2-yl]-2-[(3-phenyloxetan-3-yl)oxy]pyrimidine]"
21,1.66,"FC(F)c1nnc(-c2cnc(OC3(c4ccccn4)COC3)nc2)o1 [I.143, 5-[5-(difluoromethyl)-1,3,4-oxadiazol-2-yl]-2-{[3-(pyridin-2-yl)oxetan-3-yl]oxy}pyrimidine]"
22,3.28,"CCON(Cc1ccccc1)c1ncc(-c2nnc(C(F)F)o2)cn1 [I.148, N-benzyl-N-{5-[5-(difluoromethyl)-1,3,4-oxadiazol-2-yl]pyrimidin-2-yl}-O-ethylhydroxylamine]"
23,3.19,"Fc1ccc(C2(Oc3ncc(-c4nnc(C(F)F)o4)cn3)CC2)cc1 [I.149, 5-[5-(difluoromethyl)-1,3,4-oxadiazol-2-yl]-2-{[1-(4-fluorophenyl)cyclopropyl]oxy}pyrimidine]"
24,2.57,"Cc1ccc(C2(Nc3ncc(-c4nnc(C(F)F)o4)cn3)COC2)cc1 [I.158, 5-[5-(difluoromethyl)-1,3,4-oxadiazol-2-yl]-N-[3-(4-methylphenyl)oxetan-3-yl]pyrimidin-2-amine]"
25,3.22,"Fc1ccccc1C1(Nc2ncc(-c3nnc(C(F)F)s3)cn2)CC1 [I.162, 5-[5-(difluoromethyl)-1,3,4-thiadiazol-2-yl]-N-[1-(2-fluorophenyl)cyclopropyl]pyrimidin-2-amine]"
26,3.34,"FC(F)c1nnc(-c2cnc(NC3(c4ccccc4Cl)CC3)nc2)o1 [I.163, N-[1-(2-chlorophenyl)cyclopropyl]-5-[5-(difluoromethyl)-1,3,4-oxadiazol-2-yl]pyrimidin-2-amine]"
27,2.95,"Fc1cccc(F)c1C1(Nc2ncc(-c3nnc(C(F)F)o3)cn2)CC1 [I.164, 5-[5-(difluoromethyl)-1,3,4-oxadiazol-2-yl]-N-[1-(2,6-difluorophenyl)cyclopropyl]pyrimidin-2-amine]"
28,3.25,"Fc1cccc(F)c1C1(Oc2ncc(-c3nnc(C(F)F)o3)cn2)CC1 [I.167, 5-[5-(difluoromethyl)-1,3,4-oxadiazol-2-yl]-2-{[1-(2,6-difluorophenyl)cyclopropyl]oxy}pyrimidine]"
29,3.34,"CC(C)(Nc1ncc(-c2nnc(C(F)F)o2)cn1)c1c(F)cccc1F [I.168, 5-[5-(difluoromethyl)-1,3,4-oxadiazol-2-yl]-N-[2-(2,6-difluorophenyl)propan-2-yl]pyrimidin-2-amine]"

# Same assay, conditions: reversed phase HPLC column; method [a], HPLC on reversed phase columns; read-out: logP
row,chromatographic logP,Compound
1,3.81,"FC(F)c1nnc(-c2cnc(NC3(c4ccccc4Cl)CCC3)nc2)o1 [I.174, N-[1-(2-chlorophenyl)cyclobutyl]-5-[5-(difluoromethyl)-1,3,4-oxadiazol-2-yl]pyrimidin-2-amine]"
2,3.79,"Fc1ccccc1C1(Nc2ncc(-c3nnc(C(F)(F)F)s3)cn2)CC1 [I.178, N-[1-(2-fluorophenyl)cyclopropyl]-5-[5-(trifluoromethyl)-1,3,4-thiadiazol-2-yl]pyrimidin-2-amine]"
3,3.76,"Fc1ccccc1C1(Nc2ncc(-c3nnc(C(F)(F)Cl)o3)cn2)CC1 [I.179, 5-{5-[chloro(difluoro)methyl]-1,3,4-oxadiazol-2-yl}-N-[1-(2-fluorophenyl)cyclopropyl]pyrimidin-2-amine]"
4,3.59,"O=C(c1ccc(F)cc1F)N(C(=O)c1ccc(F)cc1F)c1ncc(-c2nnc(C(F)F)o2)cn1 [I.185, N-(2,4-difluorobenzoyl)-N-{5-[5-(difluoromethyl)-1,3,4-oxadiazol-2-yl]pyrimidin-2-yl}-2,4-difluorobenzamide]"
5,2.65,"CC(C)C1(Nc2ncc(-c3nnc(C(F)F)o3)cn2)CC1 [I.187, 5-[5-(difluoromethyl)-1,3,4-oxadiazol-2-yl]-N-(1-isopropylcyclopropyl)pyrimidin-2-amine]"
6,2.62,"FC(F)c1nnc(-c2cnc(NC3(c4ccccc4)CC3)nc2)o1 [I.195, 5-[5-(difluoromethyl)-1,3,4-oxadiazol-2-yl]-N-(1-phenylcyclopropyl)pyrimidin-2-amine]"
7,3.08,"CC(C)(Nc1ncc(-c2nnc(C(F)F)o2)cn1)c1ccccc1 [I.197, 5-[5-(difluoromethyl)-1,3,4-oxadiazol-2-yl]-N-(2-phenylpropan-2-yl)pyrimidin-2-amine]"
8,1.11,"CC(C)(Nc1ncc(-c2nnc(C(F)F)o2)cn1)c1ccccn1 [I.198, 5-[5-(difluoromethyl)-1,3,4-oxadiazol-2-yl]-N-[2-(pyridin-2-yl)propan-2-yl]pyrimidin-2-amine]"
